Experiment: xn = mol fraction of the nth substance listed
Conditions: 101 kPa

CN(CCO)CCO + CC(=O)[O-].CC[n+]1ccn(C)c1
x2 = 0
Conditions | electrical conductivity [S/m] | viscosity [mPa·s]
288.15 K | 0.0002 | 137.6
293.15 K | 0.0003 | 101.2
298.15 K | 0.0004 | 74.8
303.15 K | 0.0005 | 57.2
308.15 K | 0.0007 | 43
313.15 K | 0.0009 | 34.1
318.15 K | 0.0011 | 26.1
323.15 K | 0.0014 | 21.6
333.15 K | 0.0024 | 14.19
348.15 K | 0.0046 | 8.13
353.15 K | 0.0056 | 7.09

CC(=O)[O-].CC[n+]1ccn(C)c1 + CN(CCO)CCO
Conditions | electrical conductivity [S/m] | viscosity [mPa·s]
288.15 K, x1 = 0.1002 | 0.01 | 144.1
288.15 K, x1 = 0.2997 | 0.048 | 155.8
288.15 K, x1 = 0.4001 | 0.059 | 163
288.15 K, x1 = 0.5998 | 0.075 | 193
288.15 K, x1 = 0.7003 | 0.087 | 203
288.15 K, x1 = 0.7998 | 0.103 | 217
288.15 K, x1 = 0.8999 | 0.124 | 236
288.15 K, x1 = 1 | 0.151 | 288
293.15 K, x1 = 0.1002 | 0.014 | 107.2
293.15 K, x1 = 0.2002 | 0.044 | 112.8
293.15 K, x1 = 0.2997 | 0.059 | 118.3
293.15 K, x1 = 0.4995 | 0.085 | 128.7
293.15 K, x1 = 0.5998 | 0.099 | 140.6
293.15 K, x1 = 0.7003 | 0.116 | 147.3
293.15 K, x1 = 0.7998 | 0.138 | 154.8
293.15 K, x1 = 0.8999 | 0.169 | 170
293.15 K, x1 = 1 | 0.201 | 197
298.15 K, x1 = 0.1002 | 0.019 | 80.3
298.15 K, x1 = 0.2002 | 0.054 | 85.1
298.15 K, x1 = 0.2997 | 0.073 | 88.7
298.15 K, x1 = 0.4001 | 0.089 | 93.2
298.15 K, x1 = 0.5998 | 0.13 | 106.5
298.15 K, x1 = 0.7003 | 0.152 | 110.8
298.15 K, x1 = 0.7998 | 0.184 | 114.1
298.15 K, x1 = 0.8999 | 0.227 | 127.2
298.15 K, x1 = 1 | 0.278 | 140
303.15 K, x1 = 0.1002 | 0.025 | 60.8
303.15 K, x1 = 0.2997 | 0.091 | 68.6
303.15 K, x1 = 0.4001 | 0.115 | 71.9
303.15 K, x1 = 0.4995 | 0.148 | 75.7
303.15 K, x1 = 0.7003 | 0.204 | 83.8
303.15 K, x1 = 0.7998 | 0.242 | 86.6
303.15 K, x1 = 0.8999 | 0.295 | 95.8
308.15 K, x1 = 0.1002 | 0.032 | 47.2
308.15 K, x1 = 0.2002 | 0.079 | 50.7
308.15 K, x1 = 0.2997 | 0.11 | 53.3
308.15 K, x1 = 0.4001 | 0.143 | 56.1
308.15 K, x1 = 0.4995 | 0.185 | 59.9
308.15 K, x1 = 0.5998 | 0.217 | 64.3
308.15 K, x1 = 0.7003 | 0.271 | 65.4
308.15 K, x1 = 0.7998 | 0.315 | 66.8
308.15 K, x1 = 1 | 0.461 | 78.3
313.15 K, x1 = 0.1002 | 0.04 | 37.2
313.15 K, x1 = 0.2002 | 0.093 | 40.3
313.15 K, x1 = 0.2997 | 0.134 | 42.9
313.15 K, x1 = 0.4001 | 0.175 | 45
313.15 K, x1 = 0.5998 | 0.273 | 51.7
313.15 K, x1 = 0.8999 | 0.486 | 58.1
313.15 K, x1 = 1 | 0.585 | 60.4
318.15 K, x1 = 0.2002 | 0.112 | 32
318.15 K, x1 = 0.2997 | 0.163 | 34.3
318.15 K, x1 = 0.4001 | 0.215 | 36.4
318.15 K, x1 = 0.4995 | 0.28 | 39.7
318.15 K, x1 = 0.5998 | 0.342 | 41.3
318.15 K, x1 = 0.7998 | 0.505 | 43.7
323.15 K, x1 = 0.2002 | 0.132 | 26.1
323.15 K, x1 = 0.2997 | 0.194 | 27.3
323.15 K, x1 = 0.4001 | 0.259 | 29.8
323.15 K, x1 = 0.4995 | 0.344 | 32.7
323.15 K, x1 = 0.5998 | 0.423 | 33.9
323.15 K, x1 = 0.7003 | 0.519 | 35.1
323.15 K, x1 = 0.7998 | 0.624 | 35.9
323.15 K, x1 = 0.8999 | 0.736 | 38.3
328.15 K, x1 = 0.2002 | 0.157 | 21.4
328.15 K, x1 = 0.2997 | 0.23 | 22.8
328.15 K, x1 = 0.4001 | 0.311 | 25
328.15 K, x1 = 0.7003 | 0.628 | 28.7
328.15 K, x1 = 0.7998 | 0.763 | 29.4
328.15 K, x1 = 0.8999 | 0.886 | 30.8
328.15 K, x1 = 1 | 1.06 | 31.2
333.15 K, x1 = 0.1002 | 0.09 | 15.76
333.15 K, x1 = 0.2002 | 0.184 | 17.9
333.15 K, x1 = 0.2997 | 0.273 | 19.4
333.15 K, x1 = 0.4001 | 0.371 | 20.6
333.15 K, x1 = 0.4995 | 0.495 | 22
333.15 K, x1 = 0.5998 | 0.628 | 23
333.15 K, x1 = 0.7003 | 0.755 | 23.8
333.15 K, x1 = 0.7998 | 0.909 | 24.5
338.15 K, x1 = 0.1002 | 0.108 | 13
338.15 K, x1 = 0.2002 | 0.215 | 14.46
338.15 K, x1 = 0.2997 | 0.322 | 16.9
338.15 K, x1 = 0.4001 | 0.437 | 17.3
338.15 K, x1 = 0.4995 | 0.583 | 18.7
338.15 K, x1 = 0.5998 | 0.742 | 19.3
338.15 K, x1 = 0.7003 | 0.896 | 19.9
338.15 K, x1 = 0.7998 | 1.08 | 20.5
338.15 K, x1 = 0.8999 | 1.25 | 21.1
338.15 K, x1 = 1 | 1.47 | 21.8
343.15 K, x1 = 0.1002 | 0.126 | 10.85
343.15 K, x1 = 0.2002 | 0.249 | 12.19
343.15 K, x1 = 0.2997 | 0.377 | 14.5
343.15 K, x1 = 0.4995 | 0.684 | 16.1
343.15 K, x1 = 0.5998 | 0.882 | 16.6
343.15 K, x1 = 0.7003 | 1.05 | 17.3
343.15 K, x1 = 0.7998 | 1.26 | 17.7
343.15 K, x1 = 0.8999 | 1.46 | 18.2
343.15 K, x1 = 1 | 1.71 | 18.8
348.15 K, x1 = 0.1002 | 0.148 | 9.17
348.15 K, x1 = 0.2002 | 0.287 | 10.36
348.15 K, x1 = 0.2997 | 0.441 | 12.49
348.15 K, x1 = 0.4001 | 0.605 | 12.74
348.15 K, x1 = 0.5998 | 1.04 | 14.22
348.15 K, x1 = 0.7003 | 1.22 | 14.67
348.15 K, x1 = 0.7998 | 1.46 | 15.22
348.15 K, x1 = 0.8999 | 1.68 | 15.69
348.15 K, x1 = 1 | 1.96 | 16.01
353.15 K, x1 = 0.1002 | 0.172 | 8.38
353.15 K, x1 = 0.2997 | 0.511 | 10.86
353.15 K, x1 = 0.4001 | 0.7 | 11.03
353.15 K, x1 = 0.4995 | 0.919 | 12.24
353.15 K, x1 = 0.7003 | 1.42 | 13.06
353.15 K, x1 = 0.8999 | 1.93 | 13.8
353.15 K, x1 = 1 | 2.22 | 14.07
